Literature values in paper PMC12655172, “Borylated 5-Membered Ring Iminosugars: Synthesis and Biological Evaluation for Glycosidase Inhibition and Anticancer Properties for Application in Boron Neutron Capture Therapy (BNCT)—Part 2” (Pharmaceuticals, 2025).

Legend:
[1] = test system: α-D-mannosidase (lysosomal acidic); parameters: method as in PMID 8457203; details: cited from earlier work
[2] = biological target: α-D-mannosidase (fruit fly Golgi II); parameters: method as in PMID 29323461; details: cited from earlier work
[3] = biological target: α-D-mannosidase (fruit fly lysosomal acidic); parameters: method as in PMID 29323461; details: cited from earlier work
[4] = test system: α-D-mannosidase (neutral); parameters: method as in PMID 8457203; details: cited from earlier work
[5] = test system: α-D-mannosidase (Golgi II); parameters: method as in PMID 8457203; details: cited from earlier work
[6] = test system: β-D-galactosidase (E. coli); details: cited from earlier work
[7] = test system: T1, α-D-mannosidase (Jack bean); details: cited from earlier work
T1 construct: purchased Sigma-Aldrich; host or cells: Jack bean

[8] = test system: α-D-galactosidase (coffee bean); details: cited from earlier work
α-L-fucosidase = test system: α-L-fucosidase; parameters: method as in PMID 2706004; details: cited from earlier work
β-D-glucosidase (almond) [9] = test system: β-D-glucosidase (almond); parameters: method as in PMID 41011173; details: Table 3 type assay; cited from earlier work
[10] = biological target: T2, β-D-glucosidase (bovine liver) (Bos taurus, UniProt F1MNT6); parameters: method as in PMID 41011173; details: cited from earlier work
T2 sequence (F1MNT6 1-469): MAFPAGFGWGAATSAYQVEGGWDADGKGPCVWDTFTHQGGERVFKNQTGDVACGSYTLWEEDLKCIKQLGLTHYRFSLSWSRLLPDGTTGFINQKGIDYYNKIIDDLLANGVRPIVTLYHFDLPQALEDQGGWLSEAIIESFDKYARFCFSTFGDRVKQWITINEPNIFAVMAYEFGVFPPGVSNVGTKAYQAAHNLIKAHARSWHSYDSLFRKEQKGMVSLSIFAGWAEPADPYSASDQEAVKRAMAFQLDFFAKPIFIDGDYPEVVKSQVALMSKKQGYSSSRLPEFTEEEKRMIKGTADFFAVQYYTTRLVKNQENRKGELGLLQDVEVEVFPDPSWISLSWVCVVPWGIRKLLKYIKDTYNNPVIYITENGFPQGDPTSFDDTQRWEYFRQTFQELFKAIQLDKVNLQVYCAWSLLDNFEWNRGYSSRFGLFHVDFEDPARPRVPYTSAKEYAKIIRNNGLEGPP

β-D-glucosidase (almond) [11] = test system: β-D-glucosidase (almond); parameters: method as in PMID 41011173; details: cited from earlier work
α-D-glucosidase = biological target: α-D-glucosidase; parameters: method as in PMID 31557624; details: cited from earlier work
[12] = biological target: α-glucosidase (endoplasmatic reticulum I); parameters: method as in PMID 19294724; details: cited from earlier work
[13] = biological target: α-glucosidase (endoplasmatic reticulum II); parameters: method as in PMID 19294724; details: cited from earlier work
β-glucosidase (almond) = biological target: β-glucosidase (almond); parameters: method as in PMID 33228403; details: cited from earlier work
amyloglucosidase = details: read-out: IC50 amyloglucosidase; cited from earlier work

For `Cl.OC[C@@H](O)[C@@H]1[C@H](O)[C@H](O)CN1Cc1ccccc1` [N-benzyl-1,4-dideoxy-1,4-imino-D-mannitol.HCl], the “inhibition α-D-mannosidase lysosomal acidic” value [1] is listed as 34%, the IC50 [2] is listed as 690 µM and the IC50 [3] is listed as 1500 µM. The “inhibition α-D-mannosidase neutral” value [4] was 44% and the “inhibition α-D-mannosidase Golgi II” value [5] was 72%.

For `Cl.OC[C@@H](O)[C@H]1[C@H](O)[C@H](O)CN1Cc1ccccc1B(O)O` [N-(2-Methylphenylboronic acid)-1,4-dideoxy-1,4-imino-D-talitol.HCl], the “inhibition β-D-galactosidase (E. coli)” value [6] is listed as “β-D-Galactosidase (E. coli) (44–55%)”, the “inhibition α-D-mannosidase (Jack bean)” value [7] is listed as 10% and the “inhibition α-D-galactosidase (coffee bean)” value [8] is listed as less than 5%.

In the case of `OC[C@@H](O)[C@@H]1[C@@H](O)[C@@H](O)CN1Cc1ccccc1` [N-Benzyl-1,4-dideoxy-1,4-imino-D-allitol], the “inhibition α-L-fucosidase” value (α-L-fucosidase) is given as “α-L-Fucosidase (76%)”.

In the case of `OB(O)c1ccc(CN2C[C@@H](O)[C@H]3OC(O)[C@H](O)[C@H]32)cc1` (stereo partly drawn) [para 7, N-(4-methylphenylboronic acid)-3,6-dideoxy-3,6-imino-D-gulofuranose], the “Percentage inhibition β-D-Glucosidase Almond” value (β-D-glucosidase (almond) [9]) is given as 68.1%, the “inhibition % β-D-Glucosidase Bovine Liver” value [10] is given as 38.8% and the “inhibition % β-D-Glucosidase Almond” value (β-D-glucosidase (almond) [11]) is given as 43.6%.

In the case of `Cl.OC[C@@H](O)[C@H]1[C@H](O)[C@H](O)CN1Cc1ccccc1` [N-Benzyl-1,4-dideoxy-1,4-imino-D-talitol.HCl], the “inhibition β-D-galactosidase (E. coli)” value [6] is listed as “poorly inhibited”, the “inhibition α-D-mannosidase (Jack bean)” value [7] is listed as “poorly inhibited” and the “inhibition α-D-galactosidase (coffee bean)” value [8] is listed as “poorly inhibited”.

For `OC[C@@H](O)[C@H]1[C@H](O)[C@@H](O)CN1Cc1ccccc1` [N-benzyl-1,4-dideoxy-1,4-imino-D-galactitol], the IC50 (α-D-glucosidase) is listed as 40.6 µM and the “inhibition α-D-glucosidase” value (α-D-glucosidase) is listed as 93.2%.

In the case of `CCCCN1C[C@H](O)[C@@H](O)[C@H](O)[C@H]1CO` [N-Butyl-DNJ], the IC50 [12] is given as 0.68 µM and the IC50 [13] is given as 10.8 µM.

In the case of `OC[C@H]1NC[C@H](O)[C@@H](O)[C@@H]1O` [1-DNJ], the IC50 (β-glucosidase (almond)) is given as […] and the IC50 (amyloglucosidase) is given as 2.1 µM.
